# US20120214862A1, “MODULATION OF FACTOR 7 EXPRESSION” (ISIS Pharmaceuticals, Inc., priority 2009, published 2012)
# Like-named read-outs stand apart in the source and are kept apart here.
# Legend:
# BALB/c mice [1] = details: mouse, in vivo; for Blood: BALB/c, 30 min
# platelet factor-4 (PF-4) = test: FeCl3 induced venous thrombosis (VT) model, real-time RT-PCR quantification of PF-4 in vena cava as measure of thrombus formation; type: in vivo, mouse; details: for PF-4 (percent of PF-4 mRNA as compared to the PBS + FeCl3 control) / PF-4 (percentage compared to PBS controls): BALB/c mice; for PF-4 (percent of PF-4 mRNA as compared to the PBS + FeCl3 control): no ISIS 403102; for PF-4 (percentage compared to PBS controls): vena cava
# Description: (§1) Two control groups of BALB/c mice were treated with PBS, administered subcutaneously twice a week for 3 weeks. Thrombus formation was induced with FeCl3 in half of the mice while the rest of the mice were assayed for tail bleeding. […] Thrombus formation was induced with FeCl3 in all groups of the VT mice except the first control group.
# (§2) In mice undergoing FeCl3 treatment, thrombus formation was induced by applying a piece of filter paper (2×4 min) pre-saturated with 10% FeCl3 solution directly on the vena cava. After 3 minutes of exposure, the filter paper was removed. Thirty minutes after the filter paper application, a fixed length of the vein containing the thrombus was dissected out for platelet analysis. Liver was collected for RNA analysis.
# (§3) Real-time RT-PCR quantification of platelet factor-4 (PF-4) was used to quantify platelets in the vena cava as a measure of thrombus formation.
# (§4) Six additional groups of BALB/c mice was treated with 0.5 mg/kg, 1 mg/kg, 2 mg·kg, 3 mg/kg, 4 mg/kg, or 5 mg/kg of warfarin, administered intraperioneally daily for 6 days. Four hours after the last dose of warfarin, mice were sacrificed. A control group of BALB/c mice were treated with PBS, administered subcutaneously twice a week for 3 weeks. Two days after the last dose of PBS, mice were anesthetized with 150 mg/kg ketamine mixed with 10 mg/kg xylazine administered by intraperitoneal injection. Thrombus formation was induced with FeCl3 in groups of mice except the first control group.
# as §2, with “mm)” for “min)”
# as §3
# Thrombus formation was induced with FeCl3 in all of the mice except the first […] control groups. All mice were anesthetized with 150 mg/kg of ketamine mixed with 10 mg/kg of xylazine administered by intraperitoneal injection.
# After 3 minutes of exposure, the filter paper was removed. Thirty minutes after the filter paper application, a fixed length of the vein containing the thrombus was dissected out for platelet analysis.
# Real-time PCR quantification of PF-4 was used to quantify platelets in the vena cava as a measure of thrombus formation. […] Data is presented as percent of PF-4 mRNA as compared to the PBS+ FeCl3 control, […]
# BALB/c mice [2] = test: Tail bleeding assay; details: for Blood: BALB/c mice, blood collected over 40 minutes, PBS 0.06
# murine Factor 7 mRNA = test: Liver Factor 7 mRNA by real-time RT-PCR in treated BALB/c mice; type: in vivo, mouse
# Description: A control group of mice was injected subcutaneously with PBS twice a week for 3 weeks. After the treatment period, whole liver was collected for RNA and protein analysis, and plasma was collected for clotting analysis (PT/aPTT).
# (§5) RNA was extracted from liver tissue for real-time RT-PCR analysis of Factor 7.
# A control group of 3 mice was injected with a single dose of PBS, and mice in this group were sacrificed on day 1. Mice in all groups were sacrificed by cervical dislocation following anesthesia with 150 mg/kg ketamine mixed with 10 mg/kg xylazine administered by intraperitoneal injection. Liver was harvested for RNA analysis and plasma was collected for clotting analysis (PT and aPTT).
# as §5
# Mice from the first group were sacrificed on days 1 and 3 after the single dose. […] A control group of 3 mice was injected with PBS in a single dose. Mice from the control group were sacrificed 1 day later. Mice in all groups were sacrificed by cervical dislocation following anesthesia with 150 mg/kg ketamine mixed with 10 mg/kg xylazine administered by intraperitoneal injection. Liver was harvested for RNA analysis and plasma was collected for clotting analysis (PT and aPTT) for mice in all groups.
# RNA was extracted from liver tissue for quantitative RT-PCR analysis of Factor 7.
# as §1, §5
# as §4, with “A fifth group” for “Six additional groups”, “with” for “with 0.5 mg/kg, 1 mg/kg, 2 mg·kg,”, “3” for “3 mg/kg, 4 mg/kg, or 5”
smiles,measurement,setting,value
"COc1ccc(-n2nc(C(N)=O)c3c2C(=O)N(c2ccc(N4CCCCC4=O)cc2)CC3)cc1 [Apixaban, reference compound]",Blood,"BALB/c mice [1]; ip, 5 mg/kg",0.22 g
same,Blood,"BALB/c mice [1]; ip, 10 mg/kg",0.58 g
same,Blood,"BALB/c mice [1]; sc, 10 mg/kg",0.04 g
same,bleeding compared to PBS treated mice,"BALB/c mice [1]; ip, 5 mg/kg",same amount of bleeding as PBS treated mice
same,bleeding compared to PBS treated mice,"BALB/c mice [1]; ip, 10 mg/kg",increased bleeding
same,bleeding compared to PBS treated mice,"BALB/c mice [1]; sc, 10 mg/kg",less bleeding than PBS mice
"COC(=O)[C@H](c1ccccc1Cl)N1CCc2sccc2C1 [Plavix, clopidogrel, reference compound]",PF-4 (percent of PF-4 mRNA as compared to the PBS + FeCl3 control),"platelet factor-4 (PF-4); FeCl3, Plavix 6.25 mg/kg",61%
same,PF-4 (percent of PF-4 mRNA as compared to the PBS + FeCl3 control),"platelet factor-4 (PF-4); FeCl3, Plavix 12.50 mg/kg",24%
same,PF-4 (percent of PF-4 mRNA as compared to the PBS + FeCl3 control),"platelet factor-4 (PF-4); FeCl3, Plavix 25.00 mg/kg",13%
same,PF-4 (percent of PF-4 mRNA as compared to the PBS + FeCl3 control),"platelet factor-4 (PF-4); FeCl3, Plavix 50.00 mg/kg",6%
same,PF-4 in comparison to the PBS control,"platelet factor-4 (PF-4); Example 22, Plavix 6.25-50.00 mg/kg, three doses over two days",reduction of PF-4
"CC(=O)CC(c1ccccc1)c1c(O)c2ccccc2oc1=O (stereo not drawn) [warfarin, reference compound]",Blood,BALB/c mice [2]; 0.5 mg/kg i.p. daily for 6 days,0.16 g
same,Blood,BALB/c mice [2]; 1 mg/kg i.p. daily for 6 days,0.28 g
same,Blood,BALB/c mice [2]; 2 mg/kg i.p. daily for 6 days,0.58 g
same,Blood,BALB/c mice [2]; 3 mg/kg i.p. daily for 6 days,0.78 g
same,Blood,BALB/c mice [2]; 4 mg/kg i.p. daily for 6 days,0.66 g
same,Blood,BALB/c mice [2]; 5 mg/kg i.p. daily for 6 days,0.93 g
same,bleeding as compared to PBS control mice,"BALB/c mice [2]; Example 17, 0.5-5 mg/kg intraperitoneally daily for 6 days",did increase bleeding
same,PF-4 in comparison to the PBS control,"platelet factor-4 (PF-4); Example 16, dose of 1 mg/kg and higher, intraperitoneally daily for 6 days",reduction of PF-4
same,PF-4 (percentage compared to PBS controls),"platelet factor-4 (PF-4); FeCl3, 0.5 mg/kg i.p. daily for 6 days",165%
same,PF-4 (percentage compared to PBS controls),"platelet factor-4 (PF-4); FeCl3, 1 mg/kg i.p. daily for 6 days",63%
same,PF-4 (percentage compared to PBS controls),"platelet factor-4 (PF-4); FeCl3, 2 mg/kg i.p. daily for 6 days",47%
same,PF-4 (percentage compared to PBS controls),"platelet factor-4 (PF-4); FeCl3, 3 mg/kg i.p. daily for 6 days",35%
same,PF-4 (percentage compared to PBS controls),"platelet factor-4 (PF-4); FeCl3, 4 mg/kg i.p. daily for 6 days",22%
same,PF-4 (percentage compared to PBS controls),"platelet factor-4 (PF-4); FeCl3, 5 mg/kg i.p. daily for 6 days",0%
same,reduction of Factor 7 mRNA as compared to the PBS control,"murine Factor 7 mRNA; Example 15, 3 mg/kg intraperitoneally daily for 6 days",did not result in significant reduction
same,% inhibition of Factor 7 mRNA,"murine Factor 7 mRNA; liver, BALB/c mice, FeCl3 VT model, 3 mg/kg i.p. daily for 6 days, relative to PBS control",10%
